From patent US8673910B2, “Proteasome inhibitors for selectively inducing apoptosis in cancer cells” (H. Lee Moffitt Cancer Center and Research Institute, priority 2008, dated 2014) come the findings set out here.

SMILES strings stand for the structures.

The first data set concerns the target T1, chymotrypsin-like (CT-L) activity of purified 20S rabbit proteasome (Oryctolagus cuniculus, UniProt G1T4Q9).
T1 sequence (G1T4Q9 1-263): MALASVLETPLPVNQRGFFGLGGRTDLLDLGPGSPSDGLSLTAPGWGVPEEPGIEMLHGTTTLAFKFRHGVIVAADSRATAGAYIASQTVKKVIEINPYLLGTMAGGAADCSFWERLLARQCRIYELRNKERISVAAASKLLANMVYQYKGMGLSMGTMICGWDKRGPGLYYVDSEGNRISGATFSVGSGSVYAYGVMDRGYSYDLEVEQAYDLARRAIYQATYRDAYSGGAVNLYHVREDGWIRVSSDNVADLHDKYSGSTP
The data set can be described thus: Proteolytic activity of purified 20S proteasome, fluorogenic substrate Suc-Leu-Leu-Val-Tyr-AMC. The data set is classed as biochemical. The note with it: 14u, 14v vs linear acetic acid analogues; 14q vs lead compound 10a.
Description: After incubation, production of hydrolyzed 7-amido-4-methyl-coumarin (AMC) groups was measured using a WALLAC Victor^2 1420 Multilabel Counter with an excitation filter of 355 nm and an emission filter of 460 nm (Perkin Elmer Life Sciences, Turku, Finland).
The inhibitory activity of the compounds was calculated based on vehicle control). This technique monitors the hydrolytic release of a coumarin species from a synthetic peptide substrate.
The assay was conducted by using a fluorogenic peptide as substrate to test synthesized compounds for inhibitory activity against the chymotrypsin-like activity of the purified rabbit 20S proteasome. Briefly, 70 ng of purified 20S proteasome was incubated with 20 μM Suc-Leu-Leu-Val-Tyr-AMC for 1 hour at 37° C. in 100 μl of assay buffer (50 mM Tris-HCl, pH 7.6) with or without inhibitors. After incubation, production of hydrolyzed 7-amido-4-methyl-coumarin (AMC) was measured using a WALLAC Victor2 1420 Multilabel Counter with an excitation filter of 355 nm and an emission filter of 460 nm (Perkin Elmer Life Sciences, Turku, Finland). The inhibitory activity of the compounds was calculated based on vehicle control.
Consider `O=C(O)CSc1cc(NS(=O)(=O)c2ccc3ccccc3c2)c2ccccc2c1O` [Compound 14q, 2-(1-hydroxy-4-(naphthalene-2-sulfonamido)naphthalen-2-ylthio)acetic acid], for which the “decrease of proteasome inhibition activity relative to comparator compound” value is on record as 3 fold.

Regarding `CC(Sc1cc(NS(=O)(=O)c2ccc(Cl)cc2)c2ccccc2c1O)C(=O)O` (stereo not shown) [Compound 14u, 2-(4-(4-chlorophenylsulfonamido)-1-hydroxynaphthalen-2-ylthio)propanoic acid], the “decrease of proteasome inhibition activity relative to comparator compound” value was ~2 fold.

For `CC(Sc1cc(NS(=O)(=O)c2ccc3ccccc3c2)c2ccccc2c1O)C(=O)O` (stereo not shown) [Compound 14v, 2-(1-hydroxy-4-(naphthalene-2-sulfonamido)naphthalen-2-ylthio)propanoic acid], the “decrease of proteasome inhibition activity relative to comparator compound” value is ~2 fold.

The same data set, now with this note: hydronaphthoquinone sulfonamides (Table 9); purified rabbit 20S proteasome; read-out: IC50 (μM), inhibition of chymotrypsin-like activity.
As to `O=C(O)CSc1cc(NS(=O)(=O)c2ccc3ccccc3c2)c2ccccc2c1O` [Compound 14q, 2-(1-hydroxy-4-(naphthalene-2-sulfonamido)naphthalen-2-ylthio)acetic acid], the IC50 was 4.83 ± 0.79 µM.

With `CCOC(=O)CSc1cc(NS(=O)(=O)c2ccccc2)c2ccccc2c1O` [Compound 9c, Ethyl 2-(1-hydroxy-4-(phenylsulfonamido)naphthalen-2-ylthio)acetate], the IC50 amounted to 5.27 ± 2.23 µM.

Turning to `O=C(O)CCSc1cc(NS(=O)(=O)c2cccs2)c2ccccc2c1O` [Compound 10b, 3-(1-hydroxy-4-(thiophene-2-sulfonamido)naphthalen-2-ylthio)propanoic acid], the IC50 was > 10 µM.

As for `Cn1nnnc1Sc1cc(NS(=O)(=O)c2cccs2)c2ccccc2c1O` [Compound 14d, N-(4-hydroxy-3-(1-methyl-1H-tetrazol-5-ylthio)naphthalen-1-yl)thiophene-2-sulfonamide], the 50% inhibitory concentration (IC50) worked out at 4.25 ± 2.13 µM.

On to `O=C(O)c1ccccc1Sc1cc(NS(=O)(=O)c2ccc(-c3ccccc3)cc2)c2ccccc2c1O` [Compound 14t, 2-(4-(biphenyl-4-ylsulfonamido)-1-hydroxynaphthalen-2-ylthio)benzoic acid], for which the IC50 amounted to 2.19 ± 0.23 µM.

In the case of `CC(Sc1cc(NS(=O)(=O)c2ccc(Cl)cc2)c2ccccc2c1O)C(=O)O` (stereo not shown) [Compound 14u, 2-(4-(4-chlorophenylsulfonamido)-1-hydroxynaphthalen-2-ylthio)propanoic acid], the IC50 stood at 8.57 ± 0.67 µM.

Turning to `O=C(O)CSc1cc(NS(=O)(=O)c2ccc(Cl)cc2)c2ccccc2c1O` [Compound 14p, 2-(4-(4-chlorophenylsulfonamido)-1-hydroxynaphthalen-2-ylthio)acetic acid], the IC50 was found to be 3.75 ± 0.3 µM.

With `COC(=O)CCSc1cc(NS(=O)(=O)c2cccs2)c2ccccc2c1O` [Compound 9b, Methyl 3-(1-hydroxy-4-(thiophene-2-sulfonamido)naphthalen-2-ylthio)propanoate], the IC50 was 4.99 ± 2.08 µM.

In the case of `O=C(O)CSc1cc(NS(=O)(=O)c2cc(Cl)c(Cl)s2)c2ccccc2c1O` [Compound 14n, 2-(4-(4,5-dichlorothiophene-2-sulfonamido)-1-hydroxynaphthalen-2-ylthio)acetic acid], the IC50 is 2.07 ± 0.55 µM.

For the molecule `CC(Sc1cc(NS(=O)(=O)c2ccc3ccccc3c2)c2ccccc2c1O)C(=O)O` (stereo not shown) [Compound 14v, 2-(1-hydroxy-4-(naphthalene-2-sulfonamido)naphthalen-2-ylthio)propanoic acid], the IC50 was 9.11 ± 0.47 µM.

For `CCOC(=O)CSc1cc(NS(=O)(=O)c2ccc([N+](=O)[O-])cc2)c2ccccc2c1O` [Compound 9e, Ethyl 2-(1-hydroxy-4-(4-nitrophenylsulfonamido)naphthalen-2-ylthio)acetate], the IC50 stood at 3.57 ± 1.53 µM.

As for `CCOC(=O)CSc1cc(NS(=O)(=O)c2cccs2)c2ccccc2c1O` [Compound 9a, Ethyl 2-(1-hydroxy-4-(thiophene-2-sulfonamido)naphthalen-2-ylthio)acetate], the IC50 was determined as 7.33 ± 2.82 µM.

Consider `COC(=O)CCSc1cc(NS(=O)(=O)c2cc(Cl)c(Cl)s2)c2ccccc2c1O` [Compound 14m, Methyl-3-(4-(4,5-dichlorothiophene-2-sulfonamido)-1-hydroxynaphthalen-2-ylthio)propanoate], for which the IC50 was determined as 1.18 ± 0.3 µM.

The data set is the same for the next values; noted with them: purified rabbit 20S proteasome.
With `Cn1nnnc1Sc1cc(NS(=O)(=O)c2cccs2)c2ccccc2c1O` [Compound 14d, N-(4-hydroxy-3-(1-methyl-1H-tetrazol-5-ylthio)naphthalen-1-yl)thiophene-2-sulfonamide], the “proteasome (chymotrypsin-like) inhibitory activity, in words” value is given as “comparable inhibition potency against proteasome to the lead compound”.

For `CCSc1cc(NS(=O)(=O)c2cccs2)c2ccccc2c1O` [Compound 14j, N-(3-(ethylthio)-4-hydroxynaphthalen-1-yl)thiophene-2-sulfonamide], the “proteasome (chymotrypsin-like) inhibitory activity, in words” value is “the inhibitory activity totally lost”.

For `O=S(=O)(Nc1ccc(O)c2ccccc12)c1cccs1` [Compound 3, N-(4-hydroxynaphthalen-1-yl)thiophene-2-sulfonamide], the “proteasome (chymotrypsin-like) inhibitory activity, in words” value is reported as “loss of the inhibitory activity”.

Consider `O=C(O)CS(=O)(=O)c1cc(NS(=O)(=O)c2cccs2)c2ccccc2c1O` [Compound 10f, 2-(1-hydroxy-4-(thiophene-2-sulfonamido)naphthalen-2-ylsulfonyl)acetic acid], for which the “proteasome (chymotrypsin-like) inhibitory activity, in words” value is on record as “diminished the inhibitory activity”.

Take `O=S(=O)(Nc1cc(Sc2ncn[nH]2)c(O)c2ccccc12)c1cccs1` [Compound 14e, N-(3-(1H-1,2,4-triazol-5-ylthio)-4-hydroxynaphthalen-1-yl)thiophene-2-sulfonamide]: the “proteasome (chymotrypsin-like) inhibitory activity, in words” value is reported as “comparable inhibition potency against proteasome to the lead compound”.

With `O=S(=O)(Nc1cc(SCCO)c(O)c2ccccc12)c1cccs1` [Compound 14k, N-(4-hydroxy-3-(2-hydroxyethylthio)naphthalen-1-yl)thiophene-2-sulfonamide], the “proteasome (chymotrypsin-like) inhibitory activity, in words” value is on record as “the inhibitory activity totally lost”.

With `O=C(O)COc1cc(NS(=O)(=O)c2cccs2)c2ccccc2c1O` [Compound 10d, 2-(1-hydroxy-4-(thiophene-2-sulfonamido)naphthalen-2-yloxy)acetic acid], the “proteasome (chymotrypsin-like) inhibitory activity, in words” value is reported as “diminished the inhibitory activity”.

System in another data set: not given
Test: not given
Conditions: not given
In turn, `O=C(NS(=O)(=O)c1ccc(NC2=C(Cl)C(=O)c3ccccc3C2=O)cc1)c1ccccc1` [Compound 2c, N-(4-(3-chloro-1,4-dioxo-1,4-dihydronaphthalen-2-ylamino)phenylsulfonyl)benzamide] showed a melting point of 216 to 217 °C.

`O=C1C(Nc2ccc(S(=O)(=O)Nc3ccccn3)cc2)=C(N2CCOCC2)C(=O)c2ccccc21` [Compound 3e, 4-(3-morpholino-1,4-dioxo-1,4-dihydronaphthalen-2-ylamino)-N-(pyridin-2-yl)benzenesulfonamide]: the melting point lay in the range of 220 to 222 °C.

Turning to `Cc1ccnc(NS(=O)(=O)c2ccc(NC3=C(Cl)C(=O)c4ccccc4C3=O)cc2)n1` [Compound 2j, 4-(3-chloro-1,4-dioxo-1,4-dihydronaphthalen-2-ylamino)-N-(4-methylpyrimidin-2-yl)-benzenesulfonamide], the melting point was 246 to 248 °C.

On to `CN(C1=C(Cl)C(=O)c2ccccc2C1=O)c1ccc(S(=O)(=O)Nc2ccccn2)cc1` [Compound 6a, 4-((3-chloro-1,4-dioxo-1,4-dihydronaphthalen-2-yl)(methyl)amino)-N-(pyridin-2-yl)benzenesulfonamide], for which the melting point was in the range of 152 to 154 °C.

`O=C1C(Cl)=C(N(Cc2ccc([N+](=O)[O-])cc2)c2ccc(S(=O)(=O)Nc3ccccn3)cc2)C(=O)c2ccccc21` [Compound 6e, 4-((3-chloro-1,4-dioxo-1,4-dihydronaphthalen-2-yl)(4-nitrobenzyl)amino)-N-(pyridin-2-yl)benzenesulfonamide]: the melting point is 80 to 82 °C.

The molecule `N=C(N)NS(=O)(=O)c1ccc(NC2=C(Cl)C(=O)c3ccccc3C2=O)cc1` [YG1-084, N-carbamimidoyl-4-(3-chloro-1,4-dioxo-1,4-dihydronaphthalen-2-ylamino)benzene-sulfonamide] displayed a melting point of 294 to 295 °C.

`O=C1C(Cl)=C(Nc2ccc(S(=O)(=O)Nc3ccccc3)cc2)C(=O)c2ccccc21` [Compound 13b, 4-(3-chloro-1,4-dioxo-1,4-dihydro-naphthalen-2-ylamino)-N-phenyl-benzenesulfonamide] showed a melting point of 220 to 223 °C.

As for `O=C(NS(=O)(=O)c1ccc(NC2=CC(=O)c3ccccc3C2=O)cc1)c1ccccc1` [Compound 2p, N-(4-(1,4-dioxo-1,4-dihydronaphthalen-2-ylamino)phenylsulfonyl)benzamide], the melting point is 294 to 296 °C.

`COc1cc(NC2=C(Cl)C(=O)c3ccccc3C2=O)ccc1S(=O)(=O)Nc1cccc(C)c1` [Compound 13k, 4-(3-chloro-1,4-dioxo-1,4-dihydro-naphthalen-2-ylamino)-2-methoxy-N-m-tolyl-benzenesulfonamide]: the melting point lay within 264 to 267 °C.

As to `Cc1cccc(NS(=O)(=O)c2ccc(NC3=C(Cl)C(=O)c4ccccc4C3=O)cc2)c1` [Compound 13c, 4-(3-chloro-1,4-dioxo-1,4-dihydro-naphthalen-2-ylamino)-N-m-tolyl-benzenesulfonamide], the melting point fell in the range of 234 to 237 °C.

In the case of `COc1ccc(NS(=O)(=O)c2ccc(NC3=C(Cl)C(=O)c4ccccc4C3=O)cc2)cc1` [Compound 13f, 4-(3-chloro-1,4-dioxo-1,4-dihydro-naphthalen-2-ylamino)-N-(4-methoxy-phenyl)-benzenesulfonamide], the melting point lay within 233 to 234 °C.

The term IC50 denotes the concentration needed to halve the response being measured. What is called melting point is the temperature of the solid-liquid transition.
